Results as given in patent US20250144105A1, “CDK9 INHIBITORS” (Origenis GmbH, priority 2022, published 2025).

Molecular target: T1, CDK9/CyclinT1 (Homo sapiens, UniProt P50750)
T1 construct: purchased ProQinase/Reaction Biology, USA 0371-0345-1
Assay: CDK9/T1 ADPGlo kinase assay for inhibitory activity
Assay type: biochemical
Conditions: CDK9/CyclinT1 6 nM, PDKtide 40 microM, ATP 10 microM, 120 min at RT, luminescence readout
Method: The testing compound was evaluated in 12 concentrations in a 1:3 dilution series, starting from 5 microM as the highest concentration.
In a white 384 microplate (Greiner bio-one, Austria #784904,) with 2 microL of 3-fold concentrated CDK9/CyclinT1 (ProQinase/Reaction Biology, USA #0371-0345-1, LOT.: 012), final concentration (f.c.) 6 nM, in 1× kinase buffer, 2 microL of compound (3× fold concentrated in f.c. 1.66% DMSO/H2O) was added and incubated at Room Temperature (RT) for 10 min. Then 2 microL of Substrate/ATP-Mix (3× PDKtide f.c. 40 microM, SignalChem Biotech, Canada via Biozol, Eching, Germany #P10-58, LOT.: L2230-7 and 3× UltraPure ATP f.c. 10 microM (ADP Glo Kinase assay, Promega GmbH, Germany #V9102)) were added, mixed and incubated for 120 min at RT.
After incubation time, 5 microL of ADP Glo reagent (ready to use, ADP Glo Kinase assay, Promega GmbH, Germany #V9102) were added, mixed and incubated for 40 min at RT. In the last step, 10 microL of ADP Glo Detection reagent (ready to use, ADP Glo Kinase assay, Promega GmbH, Germany #V9102) were added, mixed and incubated for 30 min at RT. GloMax Discover GM3000 Reader (Promega GmbH, Germany 9700000249) was used for the readout.
The inhibitor concentration was plotted against the luminescence to determine the IC50 using XLFit 5.5 (IDBS, Guildford) to fit to a sigmoidal dose response curve with a variable slope.

T1 sequence (P50750 whole entry): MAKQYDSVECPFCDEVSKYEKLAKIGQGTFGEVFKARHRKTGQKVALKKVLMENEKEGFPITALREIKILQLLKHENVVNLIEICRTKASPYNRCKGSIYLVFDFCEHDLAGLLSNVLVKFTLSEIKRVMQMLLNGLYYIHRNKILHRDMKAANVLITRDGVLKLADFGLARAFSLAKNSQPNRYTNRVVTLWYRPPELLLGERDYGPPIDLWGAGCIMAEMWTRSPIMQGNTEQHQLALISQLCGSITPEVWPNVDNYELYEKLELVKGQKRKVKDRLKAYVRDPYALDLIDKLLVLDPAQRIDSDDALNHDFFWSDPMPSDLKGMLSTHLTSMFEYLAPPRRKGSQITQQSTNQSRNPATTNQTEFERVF
T1 sequence (O60563 whole entry partner): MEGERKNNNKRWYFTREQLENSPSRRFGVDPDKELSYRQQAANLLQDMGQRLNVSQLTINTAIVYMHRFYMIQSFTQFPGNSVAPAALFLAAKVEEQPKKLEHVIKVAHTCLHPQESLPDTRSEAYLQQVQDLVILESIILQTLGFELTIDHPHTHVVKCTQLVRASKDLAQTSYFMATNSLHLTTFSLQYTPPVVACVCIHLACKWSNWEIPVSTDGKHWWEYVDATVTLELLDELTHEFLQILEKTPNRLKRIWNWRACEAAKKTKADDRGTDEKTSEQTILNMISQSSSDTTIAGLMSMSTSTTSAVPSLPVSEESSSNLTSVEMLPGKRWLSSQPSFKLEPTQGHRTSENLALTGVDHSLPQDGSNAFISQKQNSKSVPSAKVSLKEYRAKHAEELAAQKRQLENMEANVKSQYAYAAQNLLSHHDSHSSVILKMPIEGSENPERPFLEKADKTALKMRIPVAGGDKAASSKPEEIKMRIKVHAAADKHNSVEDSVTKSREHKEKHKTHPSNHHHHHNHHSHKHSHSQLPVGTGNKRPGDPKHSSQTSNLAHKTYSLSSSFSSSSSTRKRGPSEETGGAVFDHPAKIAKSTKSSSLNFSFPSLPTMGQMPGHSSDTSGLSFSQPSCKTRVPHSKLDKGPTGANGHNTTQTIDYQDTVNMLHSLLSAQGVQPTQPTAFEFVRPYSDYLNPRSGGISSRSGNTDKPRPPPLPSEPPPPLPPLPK

IC50 [µM] | SMILES
< 0.02 | Fc1cccc(F)c1-c1nc(N[C@H]2CC[C@H](N3CCOCC3)CC2)c2ncc(Cl)n2n1 [Example #1, 7-chloro-2-(2,6-difluorophenyl)-N-((1r,4r)-4-morpholinocyclohexyl)imidazo[2,1-f][1,2,4]triazin-4-amine]
< 0.02 | CN(C)[C@H]1CC[C@H](Nc2nc(-c3c(F)cccc3F)nn3c(Cl)cnc23)CC1 [Example #3, (1r,4r)-N1-(7-chloro-2-(2,6-difluorophenyl)imidazo[2,1-f][1,2,4]triazin-4-yl)-N4,N4-dimethylcyclohexane-1,4-diamine]
< 0.02 | N[C@H]1CC[C@H](Nc2nc(-c3c(F)cccc3F)nn3c(Cl)cnc23)CC1 [Example #4, (1r,4r)-N1-(7-chloro-2-(2,6-difluorophenyl)imidazo[2,1-f][1,2,4]triazin-4-yl)cyclohexane-1,4-diamine]
< 0.02 | Fc1cccc(F)c1-c1nc(N[C@H]2CC[C@H](N3CCCCC3)CC2)c2ncc(Cl)n2n1 [Example #5, 7-chloro-2-(2,6-difluorophenyl)-N-((1r,4r)-4-(piperidin-1-yl)cyclohexyl)imidazo[2,1-f][1,2,4]triazin-4-amine]
< 0.02 | Fc1cccc(F)c1-c1nc(N[C@H]2CC[C@H](N3CCCC3)CC2)c2ncc(Cl)n2n1 [Example #6, 7-chloro-2-(2,6-difluorophenyl)-N-((1r,4r)-4-(pyrrolidin-1-yl)cyclohexyl)imidazo[2,1-f][1,2,4]triazin-4-amine]
< 0.02 | COCCN[C@H]1CC[C@H](Nc2nc(-c3c(F)cccc3F)nn3c(Cl)cnc23)CC1 [Example #7, (1r,4r)-N1-(7-chloro-2-(2,6-difluorophenyl)imidazo[2,1-f][1,2,4]triazin-4-yl)-N4-(2-methoxyethyl)cyclohexane-1,4-diamine]
< 0.02 | FCCN[C@H]1CC[C@H](Nc2nc(-c3c(F)cccc3F)nn3c(Cl)cnc23)CC1 [Example #8, (1r,4r)-N1-(7-chloro-2-(2,6-difluorophenyl)imidazo[2,1-f][1,2,4]triazin-4-yl)-N4-(2-fluoroethyl)cyclohexane-1,4-diamine]
< 0.02 | FCCCN[C@H]1CC[C@H](Nc2nc(-c3c(F)cccc3F)nn3c(Cl)cnc23)CC1 [Example #9, (1r,4r)-N1-(7-chloro-2-(2,6-difluorophenyl)imidazo[2,1-f][1,2,4]triazin-4-yl)-N4-(3-fluoropropyl)cyclohexane-1,4-diamine]
< 0.2 | CC(C)N1CCC(Nc2nc(-c3c(F)cccc3F)nn3c(Cl)cnc23)CC1 [Example #10, 7-chloro-2-(2,6-difluorophenyl)-N-(1-isopropylpiperidin-4-yl)imidazo[2,1-f][1,2,4]triazin-4-amine]
< 0.2 | Fc1cccc(F)c1-c1nc(NC2CCN(C3CCOCC3)CC2)c2ncc(Cl)n2n1 [Example #11, 7-chloro-2-(2,6-difluorophenyl)-N-(1-(tetrahydro-2H-pyran-4-yl)piperidin-4-yl)imidazo[2,1-f][1,2,4]triazin-4-amine]
< 0.2 | Fc1cccc(F)c1-c1nc(NC2CCN(C3CCCC3)CC2)c2ncc(Cl)n2n1 [Example #12, 7-chloro-N-(1-cyclopentylpiperidin-4-yl)-2-(2,6-difluorophenyl)imidazo[2,1-f][1,2,4]triazin-4-amine]
< 0.02 | CN1CCC(Nc2nc(-c3c(F)cccc3F)nn3c(Cl)cnc23)CC1 [Example #13, 7-chloro-2-(2,6-difluorophenyl)-N-(1-methylpiperidin-4-yl)imidazo[2,1-f][1,2,4]triazin-4-amine]
< 0.2 | CN1CCCCC1CNc1nc(-c2c(F)cccc2F)nn2c(Cl)cnc12 (stereo not shown) [Example #14, [7-Chloro-2-(2,6-difluoro-phenyl)-imidazo[2,1-f][1,2,4]triazin-4-yl]-(1-methyl-piperidin-2-ylmethyl)-amine]
< 0.2 | CCN1CCCC1CNc1nc(-c2c(F)cccc2F)nn2c(Cl)cnc12 (stereo not shown) [Example #15, 7-chloro-2-(2,6-difluorophenyl)-N-((1-ethylpyrrolidin-2-yl)methyl)imidazo[2,1-f][1,2,4]triazin-4-amine]
< 0.02 | Fc1cccc(F)c1-c1nc(NC2CCNCC2)c2ncc(Cl)n2n1 [Example #16, [7-Chloro-2-(2,6-difluoro-phenyl)-imidazo[2,1-f][1,2,4]triazin-4-yl]-piperidin-4-yl-amine]
< 0.02 | CN1CCC(CNc2nc(-c3c(F)cccc3F)nn3c(Cl)cnc23)CC1 [Example #17, [7-Chloro-2-(2,6-difluoro-phenyl)-imidazo[2,1-f][1,2,4]triazin-4-yl]-(1-methyl-piperidin-4-ylmethyl)-amine]
< 0.2 | Fc1cccc(F)c1-c1nc(NCCN2CCOCC2)c2ncc(Cl)n2n1 [Example #19, [7-Chloro-2-(2,6-difluoro-phenyl)-imidazo[2,1-f][1,2,4]triazin-4-yl]-(2-morpholin-4-yl-ethyl)-amine]
< 0.2 | CC(C)(C)OC(=O)N1CCCC(CNc2nc(-c3c(F)cccc3F)nn3c(Cl)cnc23)C1 (stereo not shown) [Example #20, tert-butyl 3-(((7-chloro-2-(2,6-difluorophenyl)imidazo[2,1-f][1,2,4]triazin-4-yl)amino)methyl)piperidine-1-carboxylate]
< 0.2 | Fc1cccc(F)c1-c1nc(NCC2CCNCC2)c2ncc(Cl)n2n1 [Example #21, 7-chloro-2-(2,6-difluorophenyl)-N-(piperidin-4-ylmethyl)imidazo[2,1-f][1,2,4]triazin-4-amine]
< 0.2 | Fc1cccc(F)c1-c1nc(NCC2CCCNC2)c2ncc(Cl)n2n1 (stereo not shown) [Example #22, 7-chloro-2-(2,6-difluorophenyl)-N-(piperidin-3-ylmethyl)imidazo[2,1-f][1,2,4]triazin-4-amine]
< 0.02 | NC1CCC(Nc2nc(-c3c(F)cccc3F)nn3c(Cl)cnc23)C1 (stereo not shown) [Example #24, N1-(7-chloro-2-(2,6-difluorophenyl)imidazo[2,1-f][1,2,4]triazin-4-yl)cyclopentane-1,3-diamine]
< 0.02 | Fc1cccc(Cl)c1-c1nc(N[C@H]2CC[C@H](N3CCOCC3)CC2)c2ncc(Cl)n2n1 [Example #27, 7-chloro-2-(2-chloro-6-fluorophenyl)-N-((1r,4r)-4-morpholinocyclohexyl)imidazo[2,1-f][1,2,4]triazin-4-amine]
< 0.02 | Clc1cccc(Cl)c1-c1nc(N[C@H]2CC[C@H](N3CCOCC3)CC2)c2ncc(Cl)n2n1 [Example #28, 7-chloro-2-(2,6-dichlorophenyl)-N-((1r,4r)-4-morpholinocyclohexyl)imidazo[2,1-f][1,2,4]triazin-4-amine]
< 0.02 | OCCN[C@H]1CC[C@H](Nc2nc(-c3c(F)cccc3F)nn3c(Cl)cnc23)CC1 [Example #32, 2-(((1r,4r)-4-((7-chloro-2-(2,6-difluorophenyl)imidazo[2,1-f][1,2,4]triazin-4-yl)amino)cyclohexyl)amino)ethan-1-ol]
< 0.2 | Fc1cccc(F)c1-c1nc(NCc2cccnc2)c2ncc(Cl)n2n1 [Example #36, 7-chloro-2-(2,6-difluorophenyl)-N-(pyridin-3-ylmethyl)imidazo[2,1-f][1,2,4]triazin-4-amine]
< 0.02 | CN1CCN([C@H]2CC[C@H](Nc3nc(-c4c(F)cccc4F)nn4c(Cl)cnc34)CC2)CC1 [Example #38, 7-chloro-2-(2,6-difluorophenyl)-N-((1r,4r)-4-(4-methylpiperazin-1-yl)cyclohexyl)imidazo[2,1-f][1,2,4]triazin-4-amine]

SMILES | IC50 [µM]
Fc1cccc(F)c1-c1nc(NC2CN3CCC2CC3)c2ncc(Cl)n2n1 (stereo not shown) [Example #18, (1-Aza-bicyclo[2.2.2]oct-3-yl)-[7-chloro-2-(2,6-difluoro-phenyl)-imidazo[2,1-f][1,2,4]triazin-4-yl]-amine] | < 0.2
Cc1cc(C)c(CNc2nc(-c3c(F)cccc3F)nn3c(Cl)cnc23)cn1 [Example #37, 7-chloro-2-(2,6-difluorophenyl)-N-((4,6-dimethylpyridin-3-yl)methyl)imidazo[2,1-f][1,2,4]triazin-4-amine] | < 0.2
